Measured values published in ChEMBL document CHEMBL5154729, “A fragment integrational approach to GPCR inhibition: Identification of a high affinity small molecule CXCR4 antagonist” (Eur J Med Chem, 2022).
Activity calls are given as the source filed them. The calls are words filed in the database; no cut-off is given here.

Experiments:
[1] = target: T1, C-X-C chemokine receptor type 4 (Homo sapiens, UniProt P61073); assay: Antagonist activity at CXCR4 receptor in human SUP-T1 assessed as inhibition of SDF-1alpha-induced CXCR4 internalization at 0.1 to 10 uM and measured by flow cytometry analysis; assay type: functional, cell-based; settings: filed as antagonist, dose 0.1-10 µM, DDE = dose-dependent effect
[2] = system: SUP-T1; assay: Cytotoxicity against human SUP-T1 cells at 10 to 50 uM after 72 hrs CellTiter-96 assay; assay type: toxicity, cell-based; settings: sup-t1, 72 h, dose 10-50 µM
[3] = target: T1, C-X-C chemokine receptor type 4; assay: Antagonist activity at CXCR4 receptor in SDF-1alpha-stimulated human SUP-T1 cells measured by calcium mobilization assay; assay type: functional, cell-based
[4] = target: T1, C-X-C chemokine receptor type 4; assay: Binding affinity to CXCR4 (unknown origin) expressed in CHO cells measured by 12G5 competitive binding method; assay type: cell-based
[5] = target: T1, C-X-C chemokine receptor type 4; assay: Antagonist activity at CXCR4 receptor in CHO cells expressing EGFP-CXCR4 assessed as inhibition of SDF-1alpha-induced CXCR4 internalization at 1 to 100 nM and measured by confocal microscopy; assay type: functional, cell-based; settings: filed as antagonist, dose 1-100 nM
[6] = system: Human immunodeficiency virus 1; assay: Antiviral activity against HIV1 NL4-3 virus infected in human CEM-GFP cells assessed as reduction in CXCR4-mediated HIV-1 infection at 0.1 to 10000 nM measured by fluorescence assay; assay type: functional, organism-based; settings: dose 0.1-10000 nM
[7] = system: CCRF-CEM; assay: Cytotoxicity against human CEM-GFP cells at 0.32 to 25000 nM measured by CellTiter-Blue cell viability assay; assay type: toxicity, cell-based; settings: 25 µM, dose 0.32-25000 nM
[8] = system: C-X-C chemokine receptor type 4 (Homo sapiens), P61073 [E288A]; assay: Binding affinity to CXCR4 E288A mutant (unknown origin) expressed in CHO cells at 100 nM measured by 12G5 competitive binding method; assay type: cell-based; settings: filed as antagonist
[9] = system: C-X-C chemokine receptor type 4 (Homo sapiens), P61073 [E288D]; assay: Binding affinity to CXCR4 E288D mutant (unknown origin) expressed in CHO cells at 100 nM measured by 12G5 competitive binding method; assay type: cell-based; settings: filed as antagonist
[10] = system: C-X-C chemokine receptor type 4 (Homo sapiens), P61073 [D262A]; assay: Binding affinity to CXCR4 D262A mutant (unknown origin) expressed in CHO cells at 100 nM measured by 12G5 competitive binding method; assay type: cell-based; settings: filed as antagonist
[11] = system: CHO; assay: Binding affinity to CXCR4 D262E mutant (unknown origin) expressed in CHO cells at 100 nM measured by 12G5 competitive binding method; assay type: cell-based; settings: Homo sapiens, filed as antagonist
[12] = target: T1, C-X-C chemokine receptor type 4; assay: Antagonist activity at CXCR4 receptor expressed in CHO cells transfected with CRE-luc2P assessed as reduction in forskolin-stimulated SDF-1alpha-mediated inhibition of cAMP production at 10 uM and measured by luciferase reporter gene assay; assay type: functional, cell-based; settings: filed as antagonist
[13] = target: T1, C-X-C chemokine receptor type 4; assay: Antagonist activity at CXCR4 receptor expressed in CHO cells transfected with NFAT-RE-luc2P assessed as reduction in SDF-1alpha-mediated calcium signaling pathway at 10 uM and measured by luciferase reporter gene assay; assay type: functional, cell-based; settings: filed as antagonist
[14] = target: T1, C-X-C chemokine receptor type 4; assay: Antagonist activity at CXCR4 receptor expressed in CHO cells transfected with SRE-luc2P assessed as reduction in SDF-1alpha-mediated ERK/MAPK activation at 10 uM and measured by luciferase reporter gene assay; assay type: functional, cell-based; settings: filed as antagonist
[15] = target: T1, C-X-C chemokine receptor type 4; assay: Antagonist activity at CXCR4 receptor expressed in CHO cells transfected with […] assessed as reduction in SDF-1alpha-mediated RhoA activation at 10 uM and measured by luciferase reporter gene assay; assay type: functional, cell-based; settings: filed as antagonist
[16] = target: T1, C-X-C chemokine receptor type 4; assay: Binding affinity to CXCR4 (unknown origin) expressed in CHO cells measured by Scatchard plot analysis; assay type: cell-based

T1 sequence (P61073 whole entry): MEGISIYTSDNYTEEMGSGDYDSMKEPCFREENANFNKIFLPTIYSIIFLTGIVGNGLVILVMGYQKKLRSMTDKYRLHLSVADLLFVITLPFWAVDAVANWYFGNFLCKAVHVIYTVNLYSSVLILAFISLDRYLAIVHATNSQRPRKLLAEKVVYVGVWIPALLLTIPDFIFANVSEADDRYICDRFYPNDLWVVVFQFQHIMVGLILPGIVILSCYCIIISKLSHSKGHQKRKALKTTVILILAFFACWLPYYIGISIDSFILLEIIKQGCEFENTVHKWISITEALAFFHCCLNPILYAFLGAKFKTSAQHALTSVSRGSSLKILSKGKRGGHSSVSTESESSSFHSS
C-X-C chemokine receptor type 4 (Homo sapiens), P61073 [E288D], sequence (P61073 whole entry E288D): as the sequence (P61073 whole entry) above, with E288D counted along it
C-X-C chemokine receptor type 4 (Homo sapiens), P61073 [D262A], sequence (P61073 whole entry D262A): as the sequence (P61073 whole entry) above, with D262A counted along it
C-X-C chemokine receptor type 4 (Homo sapiens), P61073 [E288A], sequence (P61073 whole entry E288A): as the sequence (P61073 whole entry) above, with E288A counted along it

Row | Structure (SMILES) | inhibition [1] | Activity [2] | IC50 [3] [nM] | IC50 [4] [nM] | inhibition [5] | Activity [6] | Activity [7] | Activity [8] [%] | Activity [9] [%] | Activity [10] [%] | Activity [11] [%] | Activity [12] | Activity [13] | Activity [14] | Activity [15] | Kd [16] [nM]
1 | c1cc(CN2CCCNCCNCCCNCC2)ccc1CN1CCCNCCNCCCNCC1 | Dde |  |  |  |  |  |  |  |  |  |  |  |  |  |  | 
2 | N=C(N)NCCC[C@H](NCc1ccccn1)C(=O)NCc1ccc(CNCCCNC2CCCCC2)cc1 | Dde | Non-Toxic | 1.6 | 12 | Active | Active | Non-Toxic | > 90 | > 60 | > 40 | > 60 | Active | Active | Active | Active | 
3 | N/C(=N\C(=O)CCCCCNC(=S)Nc1ccc2c(c1)C(=O)OC21c2ccc(O)cc2Oc2cc(O)ccc21)NCCC[C@H](NCc1ccccn1)C(=O)NCc1ccc(CNCCCNC2CCCCC2)cc1 |  |  |  |  |  |  |  |  |  |  |  |  |  |  |  | 33
